Measurements: ChEMBL document CHEMBL3272193, “New synthetic calcium selective ionophores. Design, synthesis, and transport properties” (J Med Chem, 1978)

What was measured:
Assay type in all cases: physicochemical; call rule not given here
[1] = Induction of sodium transport in chloroform layer up to 7 to 11 hrs
[2] = Induction of magnesium transport in chloroform layer up to 3 hrs
[3] = Induction of calcium transport in chloroform layer up to 7 to 11 hrs in absence of picrate
[4] = Induction of calcium transport in chloroform layer up to 7 to 11 hrs in presence of picrate

SMILES | Activity [1] | Activity [2] | Activity [3] | Activity [4]
CN(CCc1ccccc1)C(=O)COCC(=O)O | Not Active | – | – | –
O=C(O)COCC(=O)N1CCC(C(c2ccccc2)c2ccccc2)CC1 | Not Active | Active | Active | Active
O=C(COCCOCC(=O)N1c2ccccc2C=Cc2ccccc21)N1c2ccccc2C=Cc2ccccc21 | Not Active | – | Active | Active
O=C(COCCOCC(=O)NCCc1c[nH]c2ccccc12)NCCc1c[nH]c2ccccc12 | Not Active | – | – | –
O=C(COCCOCC(=O)NCCc1ccccc1)NCCc1ccccc1 | Not Active | – | – | –
COc1ccccc1CC(C)N(C)C(=O)COCCOCC(=O)N(C)C(C)Cc1ccccc1OC (mixture of isomers) | Not Active | Active | Active | Active
CC(CC1CCCCC1)N(C)C(=O)COCCOCC(=O)N(C)C(C)CC1CCCCC1 (mixture of isomers) | Not Active | – | Active | Active

Now from value to compound:

Activity [1] | Activity [2] | Activity [3] | Activity [4] | SMILES
Not Active | – | – | – | O=C(O)COCC(=O)NC12CC3CC(CC(C3)C1)C2
Not Active | Active | Active | Active | CC(CC1CCCCC1)N(C)C(=O)COCC(=O)O (centres undefined)
Not Active | – | – | – | O=C(O)COCC(=O)NCCc1ccccc1
Not Active | – | – | – | O=C(COCCOCC(=O)NC12CC3CC(CC(C3)C1)C2)NC12CC3CC(CC(C3)C1)C2
